The target in experiment [1] is T1, CRBN (Homo sapiens, UniProt Q96SW2).
T1 construct: endogenous in cells; host or cells: primary human T cells / CD8+ T cells from peripheral blood
Put plainly: Western blot for expression of CRBN relative to vinculin in human T cells (CRBN degradation). The following applies: read-out: Relative Density of CRBN (% of DMSO); for remaining activity at 0.01 µM: 24 h. In kind it is cell-based. From the text:
Bortez=bortezomib; MG132=proteasome inhibitor; MLN4924=NEDD8 inhibitor.
This assay is a standard Western blot assay for expression of CRBN relative to vinculin.
[…] 0.1 percent DMSO was used as a vehicle control.
A general note: Immunoblotting shows a protein as a band on a membrane.

Experiment [2] deals with cereblon (CRBN) (Homo sapiens, UniProt Q96SW2). The experiment is described as follows: Kd and % inhibition from FI. It counts as binding. The following applies: for inhibition at 200 µM: read-out: % inhibition @ 200 uM from *FI.
cereblon (CRBN), sequence (Q96SW2 whole entry, species assumed): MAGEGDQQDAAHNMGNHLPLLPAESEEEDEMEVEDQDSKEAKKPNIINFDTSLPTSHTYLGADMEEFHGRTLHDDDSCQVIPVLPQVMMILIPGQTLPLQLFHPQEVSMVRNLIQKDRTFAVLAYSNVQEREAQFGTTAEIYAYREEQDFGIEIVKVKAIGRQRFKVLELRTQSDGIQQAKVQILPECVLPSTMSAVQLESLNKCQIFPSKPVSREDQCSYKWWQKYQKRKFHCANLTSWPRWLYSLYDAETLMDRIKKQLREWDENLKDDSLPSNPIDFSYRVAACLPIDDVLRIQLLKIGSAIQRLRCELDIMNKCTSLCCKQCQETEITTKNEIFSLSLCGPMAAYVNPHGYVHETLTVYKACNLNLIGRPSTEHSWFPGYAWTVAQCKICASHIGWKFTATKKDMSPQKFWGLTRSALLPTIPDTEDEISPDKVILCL
The mark [3] stands for this setting: FI, read-out: Kd (FI) (converted).
The mark [4] stands for this setting: cell does not state FI or ITC, read-out: Kd (A) FI/ITC.

These results are taken from US20250288573A1 (H. LEE MOFFITT CANCER CENTER AND RESEARCH INSTITUTE, INC., priority 2018, published 2025).

Read-outs that look alike come from different tables or passages of the source.

T1 sequence (Q96SW2 whole entry): as the sequence (Q96SW2 whole entry, species assumed) above

Regarding `O=C1CCC(N2C(=O)c3cccc(NC(=O)CCCCCCC(=O)Nc4cccc5c4C(=O)N(C4CCC(=O)NC4=O)C5=O)c3C2=O)C(=O)N1` (stereo not drawn), in experiment [1] (10uM), the remaining activity at 10 µM came out at 11.7%. In experiment [1] (10nM, human T cells, 24 hours), the remaining activity at 0.01 µM is 44.2%. The “% inhibition @ 200 uM from *FI” value in experiment [2] was “n.b”.
On to `O=C1CCC(N2C(=O)c3cccc(NC(=O)CCCCCCCC(=O)Nc4cccc5c4C(=O)N(C4CCC(=O)NC4=O)C5=O)c3C2=O)C(=O)N1` (stereo not drawn), for which the remaining activity at 10 µM in experiment [1] (10uM) is 6.19%. The remaining activity at 0.01 µM in experiment [1] (10nM, human T cells, 24 hours) worked out at 29.8%. The “% inhibition @ 200 uM from *FI” value in experiment [2] is reported as “n.b”.
As a reminder, the inhibition is the share of the control response that was lost under treatment. For the compound `O=C1CCC(N2C(=O)c3cccc(NC(=O)CCCC(=O)Nc4cccc5c4C(=O)N(C4CCC(=O)NC4=O)C5=O)c3C2=O)C(=O)N1` (stereo not drawn) [EC1-117, N^1,N^5-bis(2-(2,6-Dioxopiperidin-3-yl)-1,3-dioxoisoindolin-4-yl)glutaramide], in experiment [1] (10uM), the remaining activity at 10 µM was 19.8%. Besides, the remaining activity at 0.01 µM in experiment [1] (10nM, human T cells, 24 hours) was 114%. The inhibition at 200 µM in experiment [2] is 47.9 ± 11%.
The matching figures for `O=C1CCC(N2C(=O)c3cccc(NC(=O)CCCCCC(=O)Nc4cccc5c4C(=O)N(C4CCC(=O)NC4=O)C5=O)c3C2=O)C(=O)N1` (stereo not drawn) [EC1-119, N^1,N^7-bis(2-(2,6-Dioxopiperidin-3-yl)-1,3-dioxoisoindolin-4-yl)heptanediamide]: 4.91%, 30.5% and 18 ± 20%.
`O=C1CCC(N2C(=O)c3cccc(NC(=O)CCCCC(=O)Nc4cccc5c4C(=O)N(C4CCC(=O)NC4=O)C5=O)c3C2=O)C(=O)N1` (stereo not drawn) [EC1-120, N^1,N^6-bis(2-(2,6-Dioxopiperidin-3-yl)-1,3-dioxoisoindolin-4-yl)adipamide]: in experiment [1] (10uM), the remaining activity at 10 µM is 16.8%. In experiment [1] (10nM, human T cells, 24 hours), the remaining activity at 0.01 µM worked out at 95.3%. Further, the inhibition at 200 µM in experiment [2] came out at 23.2 ± 20%.
As to `O=C1CCC(N2C(=O)c3cccc(NC(=O)CCCCCCCCC(=O)Nc4cccc5c4C(=O)N(C4CCC(=O)NC4=O)C5=O)c3C2=O)C(=O)N1` (stereo not drawn) [EC1-132, N^1,N^10-bis(2-(2,6-Dioxopiperidin-3-yl)-1,3-dioxoisoindolin-4-yl)decanediamide], the remaining activity at 10 µM in experiment [1] (10uM) was found to be 33%. In addition, the remaining activity at 0.01 µM in experiment [1] (10nM, human T cells, 24 hours) came to 33.4%. Besides, the “% inhibition @ 200 uM from *FI” value in experiment [2] is “n.b”.
On to `O=C1CCC(N2C(=O)c3cccc(NC(=O)[C@H]4CC[C@@H](C(=O)Nc5cccc6c5C(=O)N(C5CCC(=O)NC5=O)C6=O)CC4)c3C2=O)C(=O)N1` (stereo partly drawn) [EC1-133, (cis)-N^1,N^4-bis(2-(2,6-Dioxopiperidin-3-yl)-1,3-dioxoisoindolin-4-yl)cyclohexane-1,4-dicarboxamide], for which the remaining activity at 10 µM in experiment [1] (10uM) worked out at 10.3%. The remaining activity at 0.01 µM in experiment [1] (10nM, human T cells, 24 hours) was 119%. In addition, the “% inhibition @ 200 uM from *FI” value in experiment [2] is recorded as “n.b”.
The corresponding values for `O=C1CCC(N2C(=O)c3cccc(NC(=O)[C@H]4CC[C@H](C(=O)Nc5cccc6c5C(=O)N(C5CCC(=O)NC5=O)C6=O)CC4)c3C2=O)C(=O)N1` (stereo partly drawn) [EC1-135, (trans)-N^1,N^4-bis(2-(2,6-Dioxopiperidin-3-yl)-1,3-dioxoisoindolin-4-yl)cyclohexane-1,4-dicarboxamide] are 36.5%, 134% and “n.b”.
With `O=C1CCC(N2Cc3c(NC(=O)CCCCCC(=O)Nc4cccc5c4CN(C4CCC(=O)NC4=O)C5=O)cccc3C2=O)C(=O)N1` (stereo not drawn) [EC1-141, N^1,N^7-Bis(2-(2,6-dioxopiperidin-3-yl)-1-oxoisoindolin-4-yl)heptanediamide], the remaining activity at 10 µM in experiment [1] (10uM) is 7.19%. Moreover, the remaining activity at 0.01 µM in experiment [1] (10nM, human T cells, 24 hours) came to 91.2%. The Kd in experiment [2] (setting [3]) is 22.1 ± 1.47 µM. Moreover, the inhibition at 200 µM in experiment [2] is 71.6 ± 2%.
On to `O=C1CCC(N2Cc3c(NC(=O)CCCC(=O)Nc4cccc5c4CN(C4CCC(=O)NC4=O)C5=O)cccc3C2=O)C(=O)N1` (stereo not drawn) [EC1-148, N^1,N^5-Bis(2-(2,6-dioxopiperidin-3-yl)-1-oxoisoindolin-4-yl)glutaramide], for which the remaining activity at 10 µM in experiment [1] (10uM) is 2.97%. The remaining activity at 0.01 µM in experiment [1] (10nM, human T cells, 24 hours) worked out at 73.8%. Further, the Kd in experiment [2] (setting [3]) is 23.6 ± 2.55 µM. Moreover, in experiment [2], the inhibition at 200 µM was determined as 83.6 ± 4%.
For `O=C1CCC(N2Cc3c(NC(=O)CCCCC(=O)Nc4cccc5c4CN(C4CCC(=O)NC4=O)C5=O)cccc3C2=O)C(=O)N1` (stereo not drawn) [EC1-149, N^1,N^6-Bis(2-(2,6-dioxopiperidin-3-yl)-1-oxoisoindolin-4-yl)adipamide], the remaining activity at 10 µM in experiment [1] (10uM) came out at 1.74%. In addition, the remaining activity at 0.01 µM in experiment [1] (10nM, human T cells, 24 hours) was determined as 76.3%. Besides, the Kd in experiment [2] (setting [3]) is 22.8 ± 0.55 µM. The inhibition at 200 µM in experiment [2] was determined as 87.3 ± 2%.
For `O=C1CCC(N2Cc3c(NC(=O)CCCCCCC(=O)Nc4cccc5c4CN(C4CCC(=O)NC4=O)C5=O)cccc3C2=O)C(=O)N1` (stereo not drawn) [EC1-150, N^1,N^8-Bis(2-(2,6-dioxopiperidin-3-yl)-1-oxoisoindolin-4-yl)octanediamide], in experiment [1] (10uM), the remaining activity at 10 µM came out at 6.33%. For the same compound, the remaining activity at 0.01 µM in experiment [1] (10nM, human T cells, 24 hours) was 99.3%. Further, the Kd in experiment [2] (setting [3]) is 18.3 ± 1.54 µM. The inhibition at 200 µM in experiment [2] amounted to 57.2 ± 10%.
The corresponding values for `O=C1CCC(N2Cc3c(NC(=O)CCCCCCCC(=O)Nc4cccc5c4CN(C4CCC(=O)NC4=O)C5=O)cccc3C2=O)C(=O)N1` (stereo not drawn) [EC1-151, N^1,N^9-Bis(2-(2,6-dioxopiperidin-3-yl)-1-oxoisoindolin-4-yl)nonanediamide] are 32%, 137%, 14.2 ± 3.16 µM and 46.7 ± 9%.
The corresponding values for `O=C1CCC(N2Cc3c(NC(=O)CCCCCCCCC(=O)Nc4cccc5c4CN(C4CCC(=O)NC4=O)C5=O)cccc3C2=O)C(=O)N1` (stereo not drawn) [EC1-152, N^1,N^10-Bis(2-(2,6-dioxopiperidin-3-yl)-1-oxoisoindolin-4-yl)decanediamide] are 28.2%, 133%, 15.5 ± 2.26 µM and 47.9 ± 2%.
Take `O=C1CCC(N2Cc3c(NC(=O)[C@H]4CC[C@H](C(=O)Nc5cccc6c5CN(C5CCC(=O)NC5=O)C6=O)CC4)cccc3C2=O)C(=O)N1` (stereo partly drawn) [EC1-154, (Trans)-N^1,N^4-Bis(2-(2,6-dioxopiperidin-3-yl)-1-oxoisoindolin-4-yl)cyclohexane-1,4-dicarboxamide]: in experiment [1], the remaining activity at 0.01 µM was 103% and the remaining activity at 10 µM came out at 44.2%. Also, in experiment [2], the inhibition at 200 µM was 18.4 ± 77%.
As for `O=C1CCC(N2Cc3c(OCc4ccc(CN5CCN(Cc6ccc(COc7cccc8c7CN(C7CCC(=O)NC7=O)C8=O)cc6)CC5)cc4)cccc3C2=O)C(=O)N1` (stereo not drawn) [EC1-168.MS], in experiment [1] (10uM), the remaining activity at 10 µM amounted to 107%. For the same compound, in experiment [2] (cell does not state FI or ITC), the “Kd (A) FI/ITC” value was “insoluble”.
As for `O=C1CCC(N2Cc3c(C#CCCCCCCC#Cc4cccc5c4CN(C4CCC(=O)NC4=O)C5=O)cccc3C2=O)C(=O)N1` (stereo not drawn) [EC2-086, 3,3′-(Deca-1,9-diyne-1,10-diylbis(1-oxoisoindoline-4,2-diyl))bis(piperidine-2,6-dione)], the remaining activity at 10 µM in experiment [1] (10uM) amounted to 10.3%. Moreover, the Kd in experiment [2] (setting [4]) was determined as 86.5 ± 25.3 µM.
The corresponding values for `O=C1CCC(N2Cc3c(CCCCCCCCCCc4cccc5c4CN(C4CCC(=O)NC4=O)C5=O)cccc3C2=O)C(=O)N1` (stereo not drawn) [EC2-093, 3,3′-(Decane-1,10-diylbis(1-oxoisoindoline-4,2-diyl))bis(piperidine-2,6-dione)] are 13.3% and 35.5 ± 47.9 µM.
Regarding `O=C(COc1cccc2c1C(=O)N(C1CCC(=O)NC1=O)C2=O)NCCCOCCCNC(=O)COc1cccc2c1C(=O)N(C1CCC(=O)NC1=O)C2=O` (stereo not drawn) [SM2-126], the remaining activity at 10 µM in experiment [1] (10uM) stood at 13.2%. The remaining activity at 0.01 µM in experiment [1] (10nM, human T cells, 24 hours) came to 136%. In addition, in experiment [2] (setting [3]), the Kd was 13.7 ± 0.7 µM. Moreover, the inhibition at 200 µM in experiment [2] turned out to be 88.9 ± 1.54%.
The matching figures for `O=C1CCC(N2Cc3c(CCCOCCOCCOCCCc4cccc5c4CN(C4CCC(=O)NC4=O)C5=O)cccc3C2=O)C(=O)N1` (stereo not drawn) [SM2-129, 3,3′-((((Oxybis(ethane-2,1-diyl))bis(oxy))bis(propane-3,1-diyl))bis(1-oxoisoindoline-4,2-diyl))bis(piperidine-2,6-dione)]: 12.4%, 53.6%, 11.1 ± 0.58 µM and 76.2 ± 1.54%.
The matching figures for `O=C1CCC(N2Cc3c(CCCOCCOCCOCCOCCCc4cccc5c4CN(C4CCC(=O)NC4=O)C5=O)cccc3C2=O)C(=O)N1` (stereo not drawn) [SM2-139, 3,3′-((4,7,10,13-Tetraoxahexadecane-1,16-diyl)bis(1-oxoisoindoline-4,2-diyl))bis(piperidine-2,6-dione)]: 19.4%, 44.3%, 9.38 ± 0.59 µM and 79.6 ± 3.13%.
For the compound `O=C1CCC(N2Cc3c(CCCOCCOCCOCCOCCOCCCc4cccc5c4CN(C4CCC(=O)NC4=O)C5=O)cccc3C2=O)C(=O)N1` (stereo not drawn) [SM2-156, 3,3′-((4,7,10,13,16-Pentaoxanonadecane-1,19-diyl)bis(1-oxoisoindoline-4,2-diyl))bis(piperidine-2,6-dione)], the remaining activity at 10 µM in experiment [1] (10uM) is 33.4%. In experiment [1] (10nM, human T cells, 24 hours), the remaining activity at 0.01 µM amounted to 56.8%. For the same compound, in experiment [2] (setting [3]), the Kd was 11.2 ± 0.53 µM. The inhibition at 200 µM in experiment [2] came to 79.5 ± 2.29%.
Consider `O=C(/C=C/c1cccc2c1CN(C1CCC(=O)NC1=O)C2=O)NCCOCCOCCNC(=O)/C=C/c1cccc2c1CN(C1CCC(=O)NC1=O)C2=O` (stereo not drawn) [SM3-003, (2E,2′E)-N,N′-((ethane-1,2-diylbis(oxy))bis(ethane-2,1-diyl))bis(3-(2-(2,6-dioxopiperidin-3-yl)-1-oxoisoindolin-4-yl)acrylamide)], for which, in experiment [1] (10uM), the remaining activity at 10 µM worked out at 102%. The remaining activity at 0.01 µM in experiment [1] (10nM, human T cells, 24 hours) was 125%. In addition, in experiment [2] (setting [3]), the Kd is 14.3 ± 0.05 µM. Further, the inhibition at 200 µM in experiment [2] was 72 ± 0.8%.
`Cc1sc2c(c1C)C(c1ccc(Cl)cc1)=N[C@H](CC(=O)NCCCCC(=O)N[C@H]1CC(=O)NC1=O)c1nnc(C)n1-2` [XS01-089]: the Kd in experiment [2] (setting [4]) was found to be 353 ± 108 µM.
